This passage reports cardiomyocyte cell size results from patent US20220288156A1, “TREATMENT” (QUEEN MARY UNIVERSITY OF LONDON, priority 2019, published 2022).

The assay concerns cardiomyocytes. Nature of the assay: Cardiomyocyte size assessment after angiotensin II. The format is cell-based, mouse. The conditions noted are these: 1 μM angiotensin II vs vehicle. Here is the method:
For cardiomyocyte hypertrophy assessment, 1 μM angiotensin II (Alfa Aesar, ThermoFisher Scientific) was added to cardiomyocyte growth media post serum starvation (i.e. 6 days post-culture), and this was refreshed the next day. Images of cardiomyocytes were captured using a bright field microscope at 40× magnification at 0, 24, and 48 hours post-angiotensin II treatment and analysed using ImageJ™ software.

Regarding “angiotensin II (DRVYIHPF; Angiotensin-2; UniProt P01019 25-32, looked up) [AngII, used to mimic the molecular stress of heart failure in cardiomyocytes]”, the cardiomyocyte cell size result is listed as “significant increase in cell size”.
